According to patent US9604975B2, “Indolyl-pyridone derivatives having checkpoint kinase 1 inhibitory activity” (Vernalis (R&D) Ltd., priority 2009, dated 2017):

The molecules below were run against T1, CHK1 (Homo sapiens, UniProt O14757) (assay: CHK1 Enzyme Assay (phosphorylation of Chktide peptide, 33P-ATP filter assay)). Settings: 12.5 nM His-CHK1, 0.01 mM ATP, 40 minutes at 30° C.; read-out: CHK1 Enzyme Activity (IC50 range).
T1 construct: His; purchased Invitrogen
T1 sequence (O14757 1-476): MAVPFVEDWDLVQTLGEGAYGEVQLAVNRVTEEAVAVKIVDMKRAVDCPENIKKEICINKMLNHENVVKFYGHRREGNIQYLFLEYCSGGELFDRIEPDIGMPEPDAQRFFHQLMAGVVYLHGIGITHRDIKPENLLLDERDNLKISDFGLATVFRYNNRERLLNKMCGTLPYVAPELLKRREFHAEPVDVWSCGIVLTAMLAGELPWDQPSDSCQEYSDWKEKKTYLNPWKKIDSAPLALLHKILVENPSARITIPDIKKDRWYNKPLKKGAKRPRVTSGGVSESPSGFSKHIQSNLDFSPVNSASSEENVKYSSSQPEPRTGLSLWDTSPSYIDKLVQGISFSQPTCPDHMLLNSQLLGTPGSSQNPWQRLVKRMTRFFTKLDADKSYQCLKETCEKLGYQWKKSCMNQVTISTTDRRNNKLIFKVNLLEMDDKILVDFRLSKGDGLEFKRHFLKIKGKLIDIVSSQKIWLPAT
Type: biochemical
Summary of the method: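 His-CHK1 (12.5 nM) phosphorylating 14.8 μM Chktide with 0.01 mM ATP plus 33P-γ-ATP, in 50 mM Hepes-NaOH pH 7.5 with 0.1 mg/mL BSA. Incubated with inhibitor for 40 min at 30 °C. Stopped with phosphoric acid; phosphopeptide captured on filter and counted by scintillation.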

IC50 [nM] | SMILES
< 100 | CN1CCN(CCCOc2ccc3[nH]c(-c4cc(NC(=O)c5cnn(Cc6ccccc6)c5)c[nH]c4=O)cc3c2)CC1 [Example 140, 1-Benzyl-1H-pyrazole-4-carboxylic acid {5-[5-[3-(4-methyl-piperazin-1-yl)-propoxy]-1H-indol-2-yl}-6-oxo-1,6-dihydro-pyridin-3-yl)-amide]
< 100 | O=C(Nc1c[nH]c(=O)c(-c2cc3cc(OCCCN4CCCCC4)ccc3[nH]2)c1)c1cnn(Cc2ccccc2)c1 [Example 143, 1-Benzyl-1H-pyrazole-4-carboxylic acid {6-oxo-5-[5-(3-piperidin-1-yl-propoxy)-1H-indol-2-yl]-1,6-dihydro-pyridin-3-yl}-amide]
< 100 | CN(C)CCCOc1ccc2[nH]c(-c3cc(NC(=O)c4cnn(Cc5ccccc5)c4)c[nH]c3=O)cc2c1 [Example 145, 1-Benzyl-1H-pyrazole-4-carboxylic acid {5-[5-(3-dimethylamino-propoxy)-1H-indol-2-yl]-6oxo-1,6-dihydro-pyridin-3-yl}-amide]
< 100 | CC1CN(CCOc2ccc3[nH]c(-c4cc(NC(=O)c5cnn(Cc6ccccc6)c5)c[nH]c4=O)cc3c2)CC(C)O1 (centres unmarked) [Example 147, 1-Benzyl-1H-pyrazole-4-carboxylic acid (5-{5-[2-(2,6-dimethyl-morpholin-4-yl)-ethoxy]-1H-indol-2-yl}-6oxo-1,6-dihydro-pyridin-3-yl)-amide]
< 100 | O=C(Nc1c[nH]c(=O)c(-c2cc3cc(OCCN4CCCCC4)ccc3[nH]2)c1)c1cnn(Cc2ccccc2)c1 [Example 149, 1-Benzyl-1H-pyrazole-4-carboxylic acid {6-oxo-5-[5-(2-piperidin-1-yl-ethoxy)-1H-indol-2-yl]-1,6-dihydro-pyridin-3-yl}-amide]
500 to 1500 | CCN(CC)CCOc1ccc2[nH]c(-c3cc(NC(=O)c4cnn(Cc5ccc(C(C)(C)C)cc5)c4)c[nH]c3=O)cc2c1 [Example 154]
< 100 | CN(C)CCCOc1ccc2[nH]c(-c3cc(NC(=O)c4cnn(Cc5ccc(C(C)(C)C)cc5)c4)c[nH]c3=O)cc2c1 [Example 156, 1-(4-tert-butylbenzyl)-1H-pyrazole-4-carboxylic acid {5-[5-(3-dimethylaminopropoxy)-1H-indol-2-yl)-6-oxo-1,6-dihydropyridin-3-yl}-amide]
< 100 | CC(C)c1ccc(Cn2cc(C(=O)Nc3c[nH]c(=O)c(-c4cc5cc(OCCCN(C)C)ccc5[nH]4)c3)cn2)cc1 [Example 157, 1-(4-Isopropylbenzyl)-1H-pyrazole-4-carboxylic acid {5-[5-(3-dimethylaminopropoxy)-1H-indol-2-yl)-6-oxo-1,6-dihydropyridin-3-yl}-amide]
< 100 | NCCOc1cccc2[nH]c(-c3cc(NC(=O)c4cnn(Cc5ccccc5)c4)c[nH]c3=O)cc12 [Example 158, 1-Benzyl-1H-pyrazole-4-carboxylic acid {5-[4-(2-amino-ethoxy)-1H-indol-2-yl]-6-oxo-1,6-dihydro-pyridin-3-yl}-amide]
< 100 | CN(C)CCOc1cccc2[nH]c(-c3cc(NC(=O)c4cnn(Cc5ccccc5)c4)c[nH]c3=O)cc12 [Example 159, 1-Benzyl-1H-pyrazole-4-carboxylic acid {5-[4-(2-dimethylamino-ethoxy)-1H-indol-2-yl]-6-oxo-1,6-dihydro-pyridin-3-yl}-amide]
< 100 | C[C@H](c1ccccc1)n1cc(C(=O)Nc2c[nH]c(=O)c(-c3cc4ccccc4[nH]3)c2)cn1 [Example 161, 1-((R)-1-Phenyl-ethyl)-1H-pyrazole-4-carboxylic acid [5-(1H-indol-2-yl)-6-oxo-1,6-dihydro-pyridin-3-yl]-amide]
< 100 | C[C@@H](c1ccccc1)n1cc(C(=O)Nc2c[nH]c(=O)c(-c3cc4cc(CN5CCCCC5)ccc4[nH]3)c2)cn1 [Example 162, 1-((S)-1-Phenyl-ethyl)-1H-pyrazole-4carboxylic acid [6-oxo-5-(5-piperidin-1-ylmethyl-1H-indol-2-yl)-1,6-dihydro-pyridin-3-yl]-amide]
< 100 | C[C@@H]1CN(Cc2ccc3[nH]c(-c4cc(NC(=O)c5cnn([C@@H](C)c6ccccc6)c5)c[nH]c4=O)cc3c2)C[C@H](C)O1 [Example 163, 1-((S)-1-Phenyl-ethyl)-1H-pyrazole-4-carboxylic acid {5-[5-(cis-2,6-dimethyl-morpholin-4-ylmethyl)-1H-indol-2-yl]-6-oxo-1,6-dihydro-pyridin-3-yl}-amide]

More lines, now with the values behind:

SMILES | IC50 [nM]
CCc1cccc(Cn2cc(C(=O)Nc3c[nH]c(=O)c(-c4cc5cc(OCCN6CC(C)OC(C)C6)ccc5[nH]4)c3)cn2)c1 (centres unmarked) [Example 138, 1-(3-Ethyl-benzyl)-1H-pyrazole-4-carboxylic acid (5-{5-[2-(2,6-dimethyl-morpholin-4-yl)-ethoxy]1H-indol-2-yl}-6-oxo-1,6-dihydro-pyridin-3-yl)-amide] | < 100
CCN(CC)CCCOc1ccc2[nH]c(-c3cc(NC(=O)c4cnn(Cc5ccccc5)c4)c[nH]c3=O)cc2c1 [Example 139, 1-Benzyl-1H-pyrazole-4-carboxylic acid {5-[5-(3-diethylamino-propoxy)-1H-indol-2-yl]-6-oxo-1,6-dihydro-pyridin-3-yl}-amide] | < 100
CCN(CC)CCOc1ccc2[nH]c(-c3cc(NC(=O)c4cnn(Cc5ccccc5)c4)c[nH]c3=O)cc2c1 [Example 141, 1-Benzyl-1H-pyrazole-4-carboxylic acid {5-[5-(2-diethylamino-ethoxy)-1H-indol-2-yl]-6-oxo-1,6-dihydro-pyridin-3-yl}-amide] | < 100
CN(C)CCOc1ccc2[nH]c(-c3cc(NC(=O)c4cnn(Cc5ccccc5)c4)c[nH]c3=O)cc2c1 [Example 142, 1-Benzyl-1H-pyrazole-4-carboxylic acid {5-[5-(2-dimethylamino-ethoxy)-1H-indol-2-yl]-6-oxo-1,6-dihydro-pyridin-3-yl}-amide] | < 100
O=C(Nc1c[nH]c(=O)c(-c2cc3cc(OCCN4CCCC4)ccc3[nH]2)c1)c1cnn(Cc2ccccc2)c1 [Example 144, 1-Benzyl-1H-pyrazole-4carboxylic acid {6-oxo-5-[5-(2-pyrrolidin-1-yl-ethoxy)-1H-indol-2-yl]-1,6-dihydro-pyridin-3-yl}-amide] | < 100
CN1CCN(CCOc2ccc3[nH]c(-c4cc(NC(=O)c5cnn(Cc6ccccc6)c5)c[nH]c4=O)cc3c2)CC1 [Example 146, 1-Benzyl-1H-pyrazole-4-carboxylic acid (5-{5-[2-(4-methyl-piperazin-1-yl)-ethoxy]-1H-indol-2-yl}-6-oxo-1,6-dihydro-pyridin-3-yl)-amide] | < 100
O=C(Nc1c[nH]c(=O)c(-c2cc3cc(OCCCN4CCCC4=O)ccc3[nH]2)c1)c1cnn(Cc2ccccc2)c1 [Example 148, 1-Benzyl-1H-pyrazole-4-carboxylic acid (6-oxo-5-{5-[3-(2-oxo-pyrrolidin-1-yl)-propoxy]-1H-indole-2-yl}-1,6-dihydro-pyridin-3-yl)-amide] | < 100
CC(C)c1ccc(Cn2cc(C(=O)Nc3c[nH]c(=O)c(-c4cc5cc(OCCCN6CCCCC6)ccc5[nH]4)c3)cn2)cc1 [Example 150, 1-(4-Isopropylbenzyl)-1H-pyrazole-4-carboxylic acid-{6-oxo-5-[5-(3-piperidin-1-ylpropoxy)-1H-indol-2-yl]-1,6-dihydropyridin-3-yl}-amide] | < 100
CC(C)(C)c1ccc(Cn2cc(C(=O)Nc3c[nH]c(=O)c(-c4cc5cc(OCCN6CCCCC6)ccc5[nH]4)c3)cn2)cc1 [Example 151, 1-(4-tert-Butylbenzyl)-1H-pyrazole-4-carboxylic acid {5-[5-(2-piperidin-1-ylethoxy)-1H-indol-2-yl)-6-oxo-1,6-dihydropyridin-3-yl}-amide] | < 100
CC(C)c1ccc(Cn2cc(C(=O)Nc3c[nH]c(=O)c(-c4cc5cc(OCCN6CCCCC6)ccc5[nH]4)c3)cn2)cc1 [Example 152, 1-(4-Isopropylbenzyl)-1H-pyrazole-4-carboxylic acid {5-[5-(2-piperidin-1-ylethoxy)-1H-indol-2-yl)-6-oxo-1,6-dihydropyridin-3-yl}-amide] | < 100
CC(C)(C)c1ccc(Cn2cc(C(=O)Nc3c[nH]c(=O)c(-c4cc5cc(OCCCN6CCCCC6)ccc5[nH]4)c3)cn2)cc1 [Example 153, 1-(4-tert-Butylbenzyl)-1H-pyrazole-4-carboxylic acid-{6-oxo-5-[5-(3-piperidin-1-ylpropoxy)-1H-indol-2-yl]-1,6-dihydropyridin-3-yl}-amide] | < 100
CCN(CC)CCOc1ccc2[nH]c(-c3cc(NC(=O)c4cnn(Cc5ccc(C(C)C)cc5)c4)c[nH]c3=O)cc2c1 [Example 155, 1-(4-Isopropylbenzyl)-1H-pyrazole-4-carboxylic acid {5-[5-(2-diethylaminoethoxy)-1H-indol-2-yl)-6-oxo-1,6-dihydropyridin-3-yl}-amide] | < 100
C[C@@H](c1ccccc1)n1cc(C(=O)Nc2c[nH]c(=O)c(-c3cc4ccccc4[nH]3)c2)cn1 [Example 160, 1-((S)-1-Phenyl-ethyl)-1H-pyrazole-4-carboxylic acid [5-(1H-indol-2-yl)-6-oxo-1,6-dihydro-pyridin-3-yl]-amide] | 100 to 500
